How the values were obtained:
P-gp (MDR1) = test: MDCK-MDR1 assay (permeability, efflux ratio); format: in vitro ADME; settings: dog, Papp BA/Papp AB, 60-minute incubation
Procedure: The permeability of the test compounds was assessed in MDCK-MDR1 cells that were cultured to confluency (4-6 days) in a 96 transwell plate. Test compounds were diluted with the transport buffer (HBSS+1% BSA) to a concentration of 0.5 μM and applied to the apical or basolateral side of the cell monolayer. Permeation of the test compounds from A to B direction or B to A direction was determined in triplicate over a 60-minute incubation time at 37° C. and 5% CO2 with a relative humidity of 95%. Test compounds were quantified by LC-MS/MS analysis based on the peaks area ratios of analyte/IS in both the receiver and donor wells of the transwell plate. The apparent permeability coefficient Papp (cm/s) was calculated using the equation: […]
Where dCr/dt is the cumulative concentration of compound in the receiver chamber as a function of time (μM/s); Vr is the solution volume in the receiver chamber (0.05 mL on the apical side; 0.25 mL on the basolateral side); A is the surface area for the transport, i.e. 0.0804 cm^2 for the area of the monolayer; CO is the initial concentration in the donor chamber (μM).

human BACE1 [1] = biological target: T1, human BACE1 (Homo sapiens, UniProt P56817); test: BACE1 efficacy assay (FRET-based, commercial BACE1 kit); format: biochemical; parameters: purchased Life Technologies P2985; settings: 10 μM test compound
Procedure: The efficacy assay was performed as a FRET-based assay using a commercially available BACE1 kit (Life Technologies, P2985). 2 μl test compound at 10 μM (final concentration) and 15 μl BACE1 enzyme from the kit (final concentration 3 nM) were preincubated for 15 minutes at room temperature before addition of 15 μl of substrate from the kit (250 nM final concentration) and incubated for additional 90 minutes at room temperature. The assay plate was subsequently read in a Pherastar (Ex540/Em590). The enzyme activity observed in presence of test compound were normalized to the enzyme activity observed in presence of buffer and 10 μM (final concentration) of the high affinity BACE1 reference inhibitor (S)-6-[3-Chloro-5-(5-prop-1-ynyl-pyridin-3-yl)-thiophen-2-yl]-2-imino-3,6-dimethyl-tetrahydropyrimidin-4-one, respectively. The efficacy of the test compounds was evaluated at 10 μM (final concentration) and defined as the percent inhibition of the enzyme activity using the equation % inhibition=100%−normalized enzyme activity in percent.

human BACE1 [2] = biological target: T1, human BACE1; test: BACE1 binding assay (SPA-based radioligand binding); parameters: biotin (biotinylated form); made in house; host or cells: Freestyle HEK293 cells; settings: pH 4.5, 10 nM radioligand, Ki=IC50/(1+L/Kd)
Procedure: The binding assay was performed as SPA-based assay using a biotinylated form of human BACE1 recombinantly expressed and subsequently purified from Freestyle HEK293 cells. The binding assay was run in a 50 mM sodium acetate buffer, pH 4.5 containing 50 mM NaCl and 0.03% Tween-20 in white clear bottom 384 plates (Corning #3653). 10 nM (final concentration) radioligand ([^3H]—N-((1S,2R)-1-benzyl-3-cyclopropylamino-2-hydroxy-propyl)-5-(methanesulfonyl-methyl-amino)-N—((R)-1-phenyl-ethyl)-isophthalamide) (TRQ11569 purchased from GE Healthcare) was mixed with test compound at a given concentration, 6 nM (final concentration) human BACE1 and 25 μg Streptavidin coated PVT core SPA beads (RPNQ0007, GE Healthcare Life Sciences) in a total volume of 40 μl. Several concentrations of each test compound were tested in the assay for […] determination. The plates were incubated for one hour at room temperature and counted in a Wallac Trilux counter. Total and non-specific binding were determined using buffer and 1 μM (final concentration) of the high affinity BACE1 reference inhibitor (S)-6-[3-chloro-5-(5-prop-1-ynyl-pyridin-3-yl)-thiophen-2-yl]-2-imino-3,6-dimethyl-tetrahydro-pyrimidin-4-one, respectively. For each test compound, a 1050 value (the concentration mediating 50% inhibition of the specific binding of the radioligand) was determined from concentration-response curve and used to calculate the Ki from the equation Ki=IC50/(1+L/Kd), where L and Kd are the final concentration of the radioligand used in the assay and the dissociation constant of the radioligand, respectively. The Kd of the radioligand was determined from saturation binding experiments.

T1 sequence (P56817 46-501): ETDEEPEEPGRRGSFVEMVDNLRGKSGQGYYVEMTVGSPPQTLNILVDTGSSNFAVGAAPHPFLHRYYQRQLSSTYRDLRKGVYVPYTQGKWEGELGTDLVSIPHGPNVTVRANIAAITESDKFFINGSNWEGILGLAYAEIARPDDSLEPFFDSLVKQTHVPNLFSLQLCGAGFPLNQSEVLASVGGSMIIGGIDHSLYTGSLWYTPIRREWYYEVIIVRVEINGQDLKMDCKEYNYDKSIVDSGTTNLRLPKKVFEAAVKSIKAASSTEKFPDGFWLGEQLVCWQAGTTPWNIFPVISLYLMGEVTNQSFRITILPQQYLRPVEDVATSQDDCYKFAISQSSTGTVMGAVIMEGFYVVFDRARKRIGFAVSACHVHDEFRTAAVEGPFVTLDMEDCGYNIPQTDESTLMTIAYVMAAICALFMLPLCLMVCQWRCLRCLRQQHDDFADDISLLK

Row | efflux ratio at 60 min, 0.5 μM (P-gp (MDR1)) | inhibition at 10 µM (human BACE1 [1]) | Ki (human BACE1 [2]) | SMILES
1 | 0.61 | 103% | 55 nM | COc1ccc(C(=O)Nc2ccc(F)c([C@]34COC[C@H]3C[C@@](F)(CF)C(N)=N4)c2)nc1 [Example 21, N-(3-((3S,4aS,7aS)-2-amino-3-fluoro-3-(fluoromethyl)-3,4,4a,5,7,7a-hexahydrofuro[3,4-b]pyridin-7a-yl)-4-fluorophenyl)-5-methoxypicolinamide]
2 | 0.89 | 103% | 200 nM | NC1=N[C@@]2(c3cc(NC(=O)c4ccc(F)cn4)cc(F)c3F)COC[C@H]2C[C@@]1(F)CF [Example 23, N-[3-[(3S,4aS,7aS)-2-amino-3-fluoro-3-(fluoromethyl)-4,4a,5,7-tetrahydrofuro[3,4-b]pyridin-7a-yl]-4,5-difluoro-phenyl]-5-fluoro-pyridine-2-carboxamide]
3 | 0.82 | 103% | 130 nM | COc1cnc(C(=O)Nc2cc(F)c(F)c([C@]34COC[C@H]3C[C@@](F)(CF)C(N)=N4)c2)cn1 [Example 24, N-[3-[(3S,4aS,7aS)-2-amino-3-fluoro-3-(fluoromethyl)-4,4a,5,7-tetrahydrofuro[3,4-b]pyridin-7a-yl]-4,5-difluoro-phenyl]-5-methoxy-pyrazine-2-carboxamide]

— US20180230160A1, “2-AMINO-7A-PHENYL-3,4,4A,5,7,7A-HEXAHYDROFURO[3,4-B]PYRIDINES AS BACE1 INHIBITORS” (H. Lundbeck A/S, priority 2015, published 2018)
